Assay results published in patent publication US6197225A, “Chromene compound” (Tokuyama Corporation, priority 1997, dated 2001).

What was measured:
[1] = Aging promotion testing: sunlight 30 min / fading one hour cycles, 10 days (durability, coloring degree); assay type: physicochemical
Protocol: In order to promote the aging, furthermore, the following testing was conducted. That is, the obtained photochromic polymer was irradiated with sunlight for 30 minutes to develop color, and its color was permitted to fade for one hour in the light of a fluorescent lamp. This cycle was repeated three times a day for a total of 10 days.
The photochromic properties before and after aged were evaluated by evaluating the color densities before and after aged. The initial color density (T0) and the color density (T30) ten days after the aging promotion testing were measured, and the durability was expressed as described below.
Furthermore, the coloring degrees of before developing color were measured before and after aged by using a color difference meter (SM-4) manufactured by Suga Shikenki Co.
7 Coloring degree before being aged=YI(0).
8 Change in the coloring degree (ΔYI)=YI(10)-YI(0)
YI(10): coloring degree after aged
(§1) Photochromic polymers were prepared in the same manner as in Example 42 but using the chromene compounds obtained in Examples 2 to 41, and their maximum absorption wavelengths, color densities, fading rates, changes in the coloring degrees and durabilitys were measured.
(§2) For the purpose of comparison, furthermore, the compounds represented by the following formulas (a), (b), (c), (d), (e) and (f) were measured for their maximum absorption wavelengths, color densities, fading rates, changes in the coloring degrees and durabilitys.
(§3) The procedure was carried out in the same manner as in Example 42 but using 100 parts of AC1 and 133 parts of BC1, the sum of the amounts of AC1 and BC1 being 0.04% by weight. The obtained photochromic polymer was measured for its maximum absorption wavelength, initial color, color density, color-developing sensitivity, fading rate, durability and change in the coloring degree.
(§4) The procedure was carried out in the same manner as in Example 83 but using the known chromene compounds shown in Table 6 instead of the chromene compound used in Example 83. […]
The obtained polymer (2 mm thick) was caused to develop color outdoors, and tones of the developed color were observed by eyes 30 seconds and 15 minutes after it was brought to the outdoors, and uniformity in the step of developing color was evaluated. […] Furthermore, the aging promoting testing was conducted in the same manner as in Example 42 to find a coloring degree (YI(0)) before aged and a change in the coloring degree (ΔY).

[2] = Photochromic properties of cast polymer (2 mm thick) under xenon lamp irradiation for 120 seconds; assay type: physicochemical; conditions: for λ max: chromene composition, or other chromene C1-C4, 0.04% by weight in polymer; for Initial color ε(0): chromene composition, or other chromene C1-C4, non-irradiated; for Color-developing sensitivity: saturated color density/xenon irradiation time
Protocol: 0.04% by weight of the chromene compound obtained in Example 1 was added to 70 parts of 4G, 15 parts of 3G, 10 parts of GMA, 5 parts of HEMA and 1 part of perbutyl ND, and was mixed together to a sufficient degree. The mixture solution was poured into a mold constituted by a glass plate and a gasket of an ethylene/vinyl acetate copolymer, and was cast-polymerized. By using an air furnace, the polymerization was conducted in a manner that the temperature was gradually raised from 30° C. to 90° C. over a period of 18 hours, and was held at 90° C. for 2 hours. After the polymerization, the polymer was taken out from the glass mold.
By using a xenon lamp, L-2480 (300 W) SHL-100, manufactured by Hamamatsu Photonics Co., the obtained polymer (2 mm thick) was irradiated with a beam of an intensity of 365 nm=2.4 mW/cm^2 and 245 nm=24 μW/cm^2 on the surface of the polymer for 120 seconds through an aero-mass filter (manufactured by Corning Co.) at 20° C.±1° C. to develop color and to measure the photochromic properties which were expressed in the following manner.
1 Maximum absorption wavelength (λmax): λmax of the polymer after it has developed color was found by using a spectrophotometer (instantaneous multi-channel photo-detector, MCPD1000) manufactured by Otsuka Denshi Kogyo Co.
2 Initial color ( ε(0)): Absorbency of the polymer in a non-irradiated state at a wavelength same as the maximum absorption wavelength of when it is irradiated with light.
3 Color density (-)=ε(120)-ε(0). ε(120): Absorbency of the polymer at a maximum absorption wavelength after it was irradiated for 120 seconds under the above-mentioned conditions.
4 Color-developing sensitivity (-/min.)=Saturated color density/xenon irradiation time.
Rate of increase in the color density per a unit time until the color density is saturated.
5 Color fading rate [t1/2 (min.)]=time required until the absorbency of the polymer drops down to one-half of [ε(120)-ε(0)] after irradiated for 120 seconds.
as §1, §2, §3, §4

[3] = chromene composition, or other chromene C1-C4, 10 days aging, Table 6
[4] = chromene composition, or other chromene C1-C4, 120 seconds, Table 6
[5] = chromene composition, or other chromene C1-C4, Table 6
[6] = YI(10)-YI(0), single chromene compound in polymer, 10 days aging, Table 5
[7] = single chromene compound in polymer, 10 days aging, Table 5
[8] = single chromene compound 0.04% by weight in polymer, 20° C., Table 5
[9] = single chromene compound 0.04% by weight in polymer, 120 seconds, 20° C., Table 5

| SMILES | Change in the coloring degree ΔYI [1, 3] | Durability [1, 3] [%] | λ max ([2]; Table 6) [nm] | Color density ε(120)-ε(0) [2, 4] | Initial color ε(0) ([2]; Table 6) | Change in the coloring degree ΔYI [1, 6] | Light resistance (durability) [1, 7] [%] | Maximum absorption wavelength λmax [2, 8] [nm] | Color density ε(120)-ε(0) [2, 9] | Fading rate t1/2 [2, 5] [min] | Color-developing sensitivity ([2]; Table 6) | Fading rate t1/2 [2, 8] [min] |
| --- | --- | --- | --- | --- | --- | --- | --- | --- | --- | --- | --- | --- |
| C1=CC2(CC3CCC2C3)Oc2c1ccc1ccccc21 (stereo not shown) [Compound C1, Spiro(norbornane-2,2'-(2H)benzo(h)chromene), reference compound] | 2.0 | 90 | 450 | 1.0 | 0.01 |  |  |  |  | > 10 | 0.2 -/min. |  |
| CC(C)(C)c1cc2ccccc2c2c1C=CC1(O2)C2(Cl)CCCC1(Cl)CCC2 (stereo not shown) [Compound 22] |  |  |  |  |  | 3.0 | 80 | 444 | 0.5 |  |  | 1.4 |
| CC(C)(C)c1cc2ccccc2c2c1C=CC(c1ccccc1)(c1cccs1)O2 (stereo not shown) [Compound 6] |  |  |  |  |  | 1.8 | 97 | 480 | 0.8 |  |  | 2.8 |
| CCOC(=O)C1=CC(c2ccccc2)(c2ccccc2)Oc2c1cc(C)c1ccccc21 [b, reference compound] |  |  |  |  |  | 6.5 | 80 | 488 | 1.2 |  |  | 14 |
| CC(C)c1cc2ccccc2c2c1C=CC1(O2)C2CCCC1CCC2 (stereo not shown) [Compound 21] |  |  |  |  |  | 2.0 | 97 | 449 | 0.5 |  |  | 1.0 |
| CC(C)(C)c1cc2ccccc2c2c1C=CC1(CC3CCC1C3)O2 (stereo not shown) [Compound 18] |  |  |  |  |  | 1.8 | 95 | 440 | 0.4 |  |  | 1.3 |
| CC(C)c1cc2cc(O)ccc2c2c1C=CC(c1cccs1)(c1cccs1)O2 [Compound 9] |  |  |  |  |  | 2.2 | 94 | 500 | 0.6 |  |  | 2.2 |
| CC(C)c1cc2ccccc2c2c1C=CC1(O2)C2CCC1CC2 (stereo not shown) [Compound 19] |  |  |  |  |  | 5.5 | 92 | 448 | 0.5 |  |  | 1.0 |
| C1=CC2(Oc3c1ccc1ccccc31)C1CCCC2CCC1 (stereo not shown) [d, reference compound] |  |  |  |  |  | 1.5 | 98 | 452 | 1.0 |  |  | 11 |
| CCCc1cc2c(CC)cc(OCC)cc2c2c1C=CC(c1ccc(OC)cc1)(c1cccs1)O2 (stereo not shown) [Compound 40] |  |  |  |  |  | 2.7 | 96 | 524 | 0.9 |  |  | 5.2 |

Now from value to molecule, other results behind:

| Change in the coloring degree ΔYI [1, 3] | Durability [1, 3] [%] | λ max ([2]; Table 6) [nm] | Color density ε(120)-ε(0) [2, 4] | Initial color ε(0) ([2]; Table 6) | Change in the coloring degree ΔYI [1, 6] | Light resistance (durability) [1, 7] [%] | Maximum absorption wavelength λmax [2, 8] [nm] | Color density ε(120)-ε(0) [2, 9] | SMILES | Fading rate t1/2 [2, 5] [min] | Color-developing sensitivity ([2]; Table 6) | Fading rate t1/2 [2, 8] [min] |
| --- | --- | --- | --- | --- | --- | --- | --- | --- | --- | --- | --- | --- |
| 5.0 | 95 | 480 | 1.0 | 0.01 |  |  |  |  | Cc1c2c(c3ccccc3c1C)OC(c1ccccc1)(c1ccccc1)C=C2 [Compound C3, 5,6-Dimethyl-2,2-diphenyl-2H-benzo(h)chromene, reference compound] | 10 | 0.2 -/min. |  |
|  |  |  |  |  | 2.5 | 97 | 492 | 1.3 | COc1ccc(C2(c3ccc(OC)cc3)C=Cc3ccc4ccccc4c3O2)cc1 [a, reference compound] |  |  | > 30 |
|  |  |  |  |  | 2.0 | 95 | 488 | 1.1 | CCC(C)(C)c1cc2ccccc2c2c1C=CC(c1ccc(OC)cc1)(c1ccco1)O2 (stereo not shown) [Compound 3] |  |  | 3.1 |
|  |  |  |  |  | 3.2 | 95 | 510 | 1.0 | COc1ccc(C2(c3ccco3)C=Cc3c(C)cc4c(F)ccc(C)c4c3O2)cc1 (stereo not shown) [Compound 41] |  |  | 6.3 |
|  |  |  |  |  | 0.7 | 98 | 452 | 0.7 | CC(C)(C)c1cc2ccccc2c2c1C=CC(c1ccccc1)(c1ccc(OC(F)(F)F)cc1)O2 (stereo not shown) [Compound 17] |  |  | 3.2 |
|  |  |  |  |  | 2.3 | 98 | 498 | 0.9 | CCCc1cc2ccccc2c2c1C=CC(c1ccc(OC)cc1)(c1ccc(OC)cc1)O2 [Compound 35] |  |  | 4.5 |
|  |  |  |  |  | 1.5 | 97 | 500 | 0.8 | COc1ccc(C2(c3ccc(OC)cc3)C=Cc3c(C(C)C)cc4ccccc4c3O2)cc1 [Compound 13] |  |  | 3.3 |
|  |  |  |  |  | 1.5 | 99 | 465 | 0.6 | CCC(C)(CC)c1cc2ccccc2c2c1C=CC(c1ccc(OC)c(F)c1)(c1ccc(OC)c(F)c1)O2 [Compound 5] |  |  | 2.2 |
| 4.0 | 95 | 458 | 0.9 | 0.02 |  |  |  |  | CCOC(=O)c1c2c(c3ccccc3c1C)OC(c1ccccc1)(c1ccccc1)C=C2 [Compound C2, 5-Ethoxycarbonyl-6-methyl-2,2-diphenyl-2H-benzo(h) chromene, reference compound] | 4.0 | 0.2 -/min. |  |
|  |  |  |  |  | 1.3 | 99 | 492 | 0.8 | COc1ccc(C2(c3ccc(OC)c(F)c3)C=Cc3c(C(C)C)cc4ccccc4c3O2)cc1F [Compound 14] |  |  | 4.3 |
|  |  |  |  |  | 2.3 | 98 | 510 | 1.1 | COc1ccc(C2(c3ccc(OC)cc3)C=Cc3c(C)cc4ccc(C)cc4c3O2)cc1 [Compound 36] |  |  | 6.0 |
|  |  |  |  |  | 2.3 | 99 | 504 | 1.2 | COc1ccc(C2(c3ccc(OC)cc3)C=Cc3c(C)cc4ccccc4c3O2)cc1 [Compound 26] |  |  | 6.0 |
|  |  |  |  |  | 5.0 | 80 | 470 | 0.7 | CCC(C)c1cc2ccccc2c2c1C=CC(c1ccc(OC)cc1)(c1ccc(OC)c(C#N)c1)O2 (stereo not shown) [Compound 4] |  |  | 2.4 |
